Test results published in patent US20070203079A1, “Methods of using small molecule compounds for neuroprotection” (priority 2005, published 2007).
Structures can show the parent of a compound that is named as a salt.

Columns and labels:
GFP::DAT-1 = assay: Pdat-1::GFP::DAT-1 expression within DA neurons; format: in vivo, C. elegans; conditions: for Neurons with cell body and dendritic/axonal GFP: water control 70%; for Mean pixel intensity of cell bodies ± SEM (fluorescence intensity): water control 1970 ± 80, compounds at 1.85, 1.49, 1.86 mM
[1] = tested on: worms containing Pdat-1::GFP+Pdat-1::torsinA+Pdat-1::torsinA (ΔE) after 6-OHDA exposure; assay: 6-OHDA dopaminergic neurodegeneration in worms with wt and mutant torsinA; format: in vivo, C. elegans; conditions: wt and mutant torsinA co-expressed; 6-OHDA insult
Source text: Previous studies have established that the “CEP” and “ADE” mechanosensory neurons in C. elegans undergo readily discernable neuronal degeneration after treatment with the dopamine-selective neurotoxin 6-OHDA (Nass et al, 2002). The toxicity of 6-OHDA is mediated through the formation of reactive oxygen species by the generation of hydrogen peroxide and […] via a nonenzymatic auto-oxidation process (Kumar et al., 1995; Foley and Riederer, 2000). […] This degeneration can be monitored in living animals by coexpressing with green fluorescent protein and categorized into three temporally and morphologically distinct stages, including neuronal process blebbing, cell body rounding with process loss, and cell body loss. These characteristic changes reproducibly appear in this order within a few hours, recapitulating observations in MPTP-treated monkeys and in 6-OHDA-treated rats, in which damage to striatal terminals leads to retrograde changes and precedes that of SNpc cell bodies (Berger et al., 1991; Herkenham et al., 1991). The actions of torsin protein in 6-OHDA-mediated neurodegeneration has recently been shown (Cao et al., J Neurosci, 25(1):3801-3812). Animals were treated with various concentrations of 6-OHDA and neurodegeneration was followed over time, as worms develop and age, by co-expression of a dopamine GFP marker in these transparent animals.
C. elegans nematodes were grown at 25° C. on NGM plates as described by Brenner (Brenner, Genetics, 1974, 77: 71-94). Two transgenic C. elegans lines were used for primary screens of the Prestwick small molecule library. A transgenic worm line expressing Pdat-1::GFP; with both wild type (Pdat-1::torsinA) or mutant (Pdat-1:::torsinA(ΔE)). Torsin-A expresses a phenotype that results in visible neurodegeneration after treatment with 6-OHDA. Transgenic worms were plated on drug plates and progeny were studied for morphological changes in the 8 dopaminergic neurons present in C. elegans.
Drugs were administered to C. elegans according to a standard procedure (Rand and Johnson, Methods Cell Biol, 1995, 48: 187-204) by mixing the solubilized drug with the agar medium on which the worms are grown. This mode of administration allows the continuous exposure of worms to the drug.
Each drug was first dissolved in an appropriate solvent, followed by adding the drug solution into pre-autoclaved media, with the volume of drug solution already taken into account. All drugs were tested at 0.5 mg/ml initial concentration, a few of which were toxic to worms and then tested at 0.1 mg/ml or 0.025 mg/ml concentration. Each plate was seeded with 100 μl concentrated E. coli OP50 bacteria
Age-synchronized worms were obtained by treating gravid adults with 2% sodium hypochlorite and 0.5M NaOH to isolate embryos (Lewis Fleming, 1995). These embryos were grown for 30 h at 25° C. At the L3 stage, larvae were incubated with 10 mM (50 mM) 6-OHDA and 2 mM (or 10 mM) ascorbic acid for 1 h with gentle agitation every 10 minutes. (Nass et al., 2002). The worms were then washed and spread onto NGM plates seeded with bacteria (OP50) and scored at time points ranging from 2 to 72 h after 6-OHDA exposure.
Immediately after 6-OHDA treatment, worms containing the transgenes were selected under a fluorescence dissecting microscope, based on the presence of GFP, and transferred to a fresh NGM plate seeded with OP50. For each time point, 30-40 worms were applied to a 2% agarose pad and immobilized with 3 mM levamisole. Worms were examined under a Nikon Eclipse E800 epifluorescence microscope equipped with an Endow GFP filter cube (Chroma Technology, Rockingham, Vt.). For ease of analysis, only the four CEP DA neurons in the head of the worm were scored. […]

[2] = Pdat-1::GFP::DAT-1, listed as Ciclopirox etnanolamine

Q: What does the source list for Cc1cc(C2CCCCC2)n(O)c(=O)c1.NCCO [Ciclopirox ethanolamine]?
A: Worms with no GFP (GFP::DAT-1; Pdat-1::GFP::DAT-1, water control 0%): 0%; Neurons with cell body GFP only (GFP::DAT-1; Pdat-1::GFP::DAT-1, water control 30%): 32.3%; Neurons with cell body and dendritic/axonal GFP (GFP::DAT-1; Pdat-1::GFP::DAT-1): 66.7%; Neurons with cell body and dendritic/axonal GFP (GFP::DAT-1; [2]): 66.7%; Mean pixel intensity of cell bodies ± SEM (fluorescence intensity) (GFP::DAT-1; Pdat-1::GFP::DAT-1): 1923 A.U.; Mean pixel intensity of cell bodies ± SEM (fluorescence intensity) (GFP::DAT-1; [2]): 1923 ± 85 A.U.; effect on GFP::DAT-1 level (GFP::DAT-1; result in words): did not have any significant effect; neuroprotection of dopaminergic neurons against 6-OHDA [1]: showed no neuroprotection

Q: How did the “neuroprotection of dopaminergic neurons against 6-OHDA” value (from here on “neuroprotection”) [1] turn out when Cc1onc(-c2ccccc2Cl)c1C(=O)N[C@@H]1C(=O)N2[C@@H]1SC(C)(C)[C@@H]2C(=O)O [Compound 186, Cloxacillin sodium salt] was run?
A: neuroprotective actions in this model, albeit to a lesser degree

Q: How did the “neuroprotection” value [1] turn out when CC1(C)S[C@@H]2[C@H](NC(=O)[C@H](N)c3ccc(O)cc3)C(=O)N2[C@H]1C(=O)O [Compound 357, Amoxiciflin] was run?
A: neuroprotective actions in this model, albeit to a lesser degree

Q: For CC1=C(C(=O)O)N2C(=O)[C@@H](NC(=O)[C@H](N)c3ccc(O)cc3)[C@H]2SC1 [Compound 434, Cefadroxil], which “neuroprotection” value [1] is on record?
A: neuroprotective actions to the same degree as compound 235

Q: Which “neuroprotection” value [1] does the source give for CC1(C)S[C@@H]2[C@H](NC(=O)C(C(=O)O)c3ccccc3)C(=O)N2[C@H]1C(=O)O (stereo partly drawn) [Compound 703, Carbenicillin disodium salt] here?
A: neuroprotective actions to the same degree as compound 235
